Source: ChEMBL document CHEMBL2073790, “TP-search Transporter Database” (Jpn Pharmacol Ther, 1998)

Tests used:
[1] = target: T1, Solute carrier organic anion transporter family member 1A1 (Rattus norvegicus, UniProt P46720); assay: (§1) TP_TRANSPORTER: Northern blot in vivo Wistar rat; type: functional, organism-based
T1 sequence (P46720 whole entry): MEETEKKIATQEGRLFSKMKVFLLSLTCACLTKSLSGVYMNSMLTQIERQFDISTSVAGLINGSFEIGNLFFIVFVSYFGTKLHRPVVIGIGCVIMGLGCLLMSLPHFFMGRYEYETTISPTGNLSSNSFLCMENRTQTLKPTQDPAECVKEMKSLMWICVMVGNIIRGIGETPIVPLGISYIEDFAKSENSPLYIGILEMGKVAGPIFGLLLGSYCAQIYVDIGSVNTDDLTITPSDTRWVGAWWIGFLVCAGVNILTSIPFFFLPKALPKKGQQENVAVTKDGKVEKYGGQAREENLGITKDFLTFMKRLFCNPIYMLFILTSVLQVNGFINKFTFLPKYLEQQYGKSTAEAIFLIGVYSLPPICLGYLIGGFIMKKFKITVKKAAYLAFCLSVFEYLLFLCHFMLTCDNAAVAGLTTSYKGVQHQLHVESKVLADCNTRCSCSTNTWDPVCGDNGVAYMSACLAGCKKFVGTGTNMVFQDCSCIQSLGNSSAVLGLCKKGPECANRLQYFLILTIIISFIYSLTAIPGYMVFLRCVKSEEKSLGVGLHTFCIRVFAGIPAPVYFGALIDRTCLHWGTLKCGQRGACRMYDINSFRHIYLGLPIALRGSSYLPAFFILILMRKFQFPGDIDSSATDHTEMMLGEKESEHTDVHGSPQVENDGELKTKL

[2] = target: Multidrug resistance protein 1a (Rattus norvegicus) (UniProt Q6PSM0); assay: as §1; type: functional, organism-based
Multidrug resistance protein 1a (Rattus norvegicus), sequence (Q6PSM0 as listed by the source): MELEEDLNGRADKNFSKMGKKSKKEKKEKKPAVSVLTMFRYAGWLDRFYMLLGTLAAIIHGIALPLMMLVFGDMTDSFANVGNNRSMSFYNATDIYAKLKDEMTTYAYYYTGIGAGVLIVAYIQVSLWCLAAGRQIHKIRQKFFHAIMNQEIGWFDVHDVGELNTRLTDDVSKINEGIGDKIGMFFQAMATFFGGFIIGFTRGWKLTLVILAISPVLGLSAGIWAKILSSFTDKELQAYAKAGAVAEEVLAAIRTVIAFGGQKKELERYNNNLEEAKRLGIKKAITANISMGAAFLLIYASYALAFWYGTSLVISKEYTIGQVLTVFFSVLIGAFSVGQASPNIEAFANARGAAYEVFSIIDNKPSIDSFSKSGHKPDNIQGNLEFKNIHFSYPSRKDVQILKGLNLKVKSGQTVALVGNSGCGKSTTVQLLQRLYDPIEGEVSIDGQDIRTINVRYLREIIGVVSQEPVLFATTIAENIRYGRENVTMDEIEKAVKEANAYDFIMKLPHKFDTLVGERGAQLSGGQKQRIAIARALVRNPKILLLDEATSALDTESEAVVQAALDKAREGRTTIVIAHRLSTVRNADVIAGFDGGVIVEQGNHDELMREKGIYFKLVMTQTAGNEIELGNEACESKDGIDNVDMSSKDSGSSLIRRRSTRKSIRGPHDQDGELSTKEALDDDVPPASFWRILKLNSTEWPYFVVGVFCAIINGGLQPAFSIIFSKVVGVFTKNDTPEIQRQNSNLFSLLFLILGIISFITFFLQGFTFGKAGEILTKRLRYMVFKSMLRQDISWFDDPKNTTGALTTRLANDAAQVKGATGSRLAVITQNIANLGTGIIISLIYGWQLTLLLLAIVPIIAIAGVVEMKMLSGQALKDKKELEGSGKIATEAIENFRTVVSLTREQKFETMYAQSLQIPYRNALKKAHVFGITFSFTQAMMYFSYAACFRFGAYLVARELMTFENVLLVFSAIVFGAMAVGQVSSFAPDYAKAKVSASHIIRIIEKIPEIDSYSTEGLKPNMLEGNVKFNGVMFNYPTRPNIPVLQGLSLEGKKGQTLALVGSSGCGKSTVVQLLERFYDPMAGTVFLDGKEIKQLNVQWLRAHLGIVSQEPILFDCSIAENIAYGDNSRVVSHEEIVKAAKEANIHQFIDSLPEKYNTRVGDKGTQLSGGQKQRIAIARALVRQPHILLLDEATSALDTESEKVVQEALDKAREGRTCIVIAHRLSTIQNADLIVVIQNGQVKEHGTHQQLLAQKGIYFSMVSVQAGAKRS

For O=C=Nc1cccc2ccccc12 [alpha-naphthylisocyanate], the Activity [1] was “inducer [+]” and the Activity [2] was “inducer [+]”.
